This note sets out measurements from PubChem BioAssay AID1553 (Sanford-Burnham Center for Chemical Genomics, 2009).

This experiment has as its system HeLa cells, 3H-mannose incorporation into glycoproteins. Put plainly: 3H-mannose glycoprotein labeling increase in HeLa – HeLa cells, orthogonal assay for PMI inhibitor project, late-stage follow-up (AID 1553).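 Note: 1 fold = DMSO treated HeLa control cells; higher fold signals phosphomannose isomerase inhibition routing mannose into glycosylation.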
The mark [1] stands for this setting: fold increase, at 25 µM, stronger effect = higher value.

Structures are written as SMILES. The source made the active and inactive calls.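 Rule for the calls: active = compounds graded as giving a low, moderate or strong rise in tritium labelling of cell protein versus solvent control; inactive = the rest.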

As to `Cc1cccc(-n2sc3ccccc3c2=O)c1`, the fold increase 3H incorporation is, setting by setting: (at 100 µM) 2.3; under setting [1], 2.

`CCSc1n[nH]c(=S)s1`: the fold increase 3H incorporation (at 100 µM) is 1 (inactive) and the fold increase 3H incorporation under setting [1] stood at 1.

Regarding `Cc1cccc(-n2sc3cc(F)ccc3c2=O)c1C`, the fold increase 3H incorporation is 0.5 (at 100 µM) and 2.1 under setting [1].

Regarding `COc1ccc(OC)c(N=c2ssnc2Cl)c1`, the fold increase 3H incorporation is 1.7 (at 100 µM) and 2.5 under setting [1].

As for `COc1ccc(-c2nc(=S)[nH][nH]2)cc1`, the fold increase 3H incorporation is 0.8 (inactive) (at 100 µM) and 1 under setting [1].

As to `O=C1c2ccccc2SC1c1ccccc1` (stereo unspecified), the fold increase 3H incorporation is 1.7 (at 100 µM) and 2.1 under setting [1].

`O=c1c2c([N+](=O)[O-])cc([N+](=O)[O-])cc2sn1-c1ccc(F)c(Cl)c1`: the fold increase 3H incorporation is 0.7 (inactive) (at 100 µM) and 0.9 under setting [1].

As to `O=c1c2ccccc2sn1-c1ccc2ccccc2c1`, the fold increase 3H incorporation is 1.9 (at 100 µM) and 1.6 under setting [1].

Turning to `CC(C)(C)c1ccc(N=c2ssnc2Cl)cc1`, the fold increase 3H incorporation by setting is: (at 100 µM) 1 (inactive); under setting [1], 0.7.

Regarding `O=c1c2ccccc2sn1-c1cc(S(=O)(=O)N2CCOCC2)ccc1N1CCCC1`, the fold increase 3H incorporation is 0.7 (inactive) (at 100 µM) and 0.7 under setting [1].

As for `Clc1ccc(Nc2ccccc2N=c2ssnc2Cl)cc1`, the fold increase 3H incorporation is 0.4 (inactive) (at 100 µM) and 0.3 under setting [1].

In the case of `O=c1c2ccccc2sn1-c1cccc(C(F)(F)F)c1`, the fold increase 3H incorporation reads like this: (at 100 µM) 0.7; under setting [1], 1.2.

For the molecule `Nc1ccccc1N=c1ssnc1Cl`, the fold increase 3H incorporation was 0.9 (inactive) (at 100 µM) and 0.9 under setting [1].
